Six compounds from patent US7192905B1, “Organophosphate insecticide synergists for fly and tick control” (priority 2003, dated 2007) can be followed below.

Data set [1] relates to Santa Luiza strain of the southern cattle tick, larvae. The data set is described as follows: FAO larval packet test, Santa Luiza strain (Example 5). The conditions noted are these: for resistance of the strain: Santa Luiza strain.
The test system of data set [2] is horn fly (Kerrville strain, susceptible reference strain). Kind of data set: Horn fly adult treated filter paper bioassay, Kerrville strain (Example 1). The format is in vivo, Haematobia irritans irritans. As to conditions: mortality after 2 hours; for effect on toxicity of chlorpyrifos: combined with chlorpyrifos 8.0 μg/cm^2; for effect on toxicity of coumaphos: combined with coumaphos 10 μg/cm^2; for effect on toxicity of pirimiphos-methyl: combined with pirimiphos-methyl 3.0 μg/cm^2. The method, then: The horn fly strain used in this trial (referred to as the Kerrville strain) is an in vitro strain being maintained on citrated bovine blood, and serves as a susceptible reference strain. Adult flies were exposed to organophosphate pesticide alone or in combination with varying ratios of atrazine or propazine (shown in FIGS. 1–8). Concentrations of diazinon, pirimiphos-methyl, chlorpyrifos and coumaphos were 2.8, 3.0, 8.0, and 10 μg/cm^2, respectively (measured as the amount of pesticide applied per unit area of filter paper). Compounds were dissolved in acetone and applied onto filter paper, which was then placed into petri dishes with the adult flies and held at room temperature under normal lighting conditions. Flies were examined for mortality after 2 hours.

Data set [3] has as its system horn fly (Oklahoma strain, challenged with diazinon). Kind of data set: Horn fly adult treated filter paper bioassay, Oklahoma strain (Example 2). The format is in vivo, Haematobia irritans irritans. As to conditions: for effect on coumaphos toxicity / effect on diazinon toxicity / effect on pirimiphos-methyl toxicity: triazine applied as 1% w/v solution, mortality after 2 hours; for effect on toxicity of chlorpyrifos: very high chlorpyrifos levels (140.2 μg/cm^2 and above), triazine 1% w/v. The method, then:
The horn fly strain used in this trial (referred to as the Kerrville strain) is an in vitro strain being maintained on citrated bovine blood, and serves as a susceptible reference strain. Adult flies were exposed to organophosphate pesticide alone or in combination with varying ratios of atrazine or propazine (shown in FIGS. 1–8). […] Compounds were dissolved in acetone and applied onto filter paper, which was then placed into petri dishes with the adult flies and held at room temperature under normal lighting conditions. Flies were examined for mortality after 2 hours.
The bioassays of Example 1 were repeated using an in vivo strain (referred to as the Oklahoma strain) maintained on steers. This horn fly strain was established using eggs from flies collected from cattle at an Oklahoma State University research ranch. The strain is maintained in vivo on steers at the USDA-ARS-KBUSLIRL, and has been challenged with diazinon. Conditions for the bioassay were the same as Example 1 except for the addition of the organophosphate fenthion, and the triazine synergists were applied as a 1% w/v solution.

Data set [4] concerns San Roman strain of the southern cattle tick, larvae. Kind of data set: FAO larval packet test, San Roman strain (Example 3). The method, then:
The strain used in these bioassays was the San Roman strain of the southern cattle tick (Boophilus microplus). […] The FAO larval packet test (LPT) was used to measure the susceptibility of tick larvae to acaricides. Dilutions of acaricide were prepared, dissolving the acaricide in trichloroethylene, then mixed with olive oil (ratio=2:1). A volume of 0.7 ml of the dilution was applied uniformly onto a piece of filter paper, and allowed to dry for 2 hr (trichloroethylene evaporates). The treated filter papers were folded into “packets” using bulldog clips, and approximately 100 larvae were added into each of “pockets”, which were then kept in a incubator (27° C., 90% RH) for 24 h before reading (# of dead and alive were counted under a magnifying glass).
In a first trial, tick larvae were exposed to 1% atrazine alone or in combination with 0.3, 0.6, or 1.2% w/v coumaphos.
In a second trial, tick larvae were exposed to varying concentrations of atrazine with either 0.3% coumaphos, 0.1 or 0.05% diazinon, or 0.01% coumaphos.

The test system of data set [5] is San Felipe strain of the southern cattle tick, larvae. Kind of data set: FAO larval packet test, San Felipe strain (Example 4). The format is in vivo, Boophilus microplus.
Description: The bioassays were conducted using the same process as described in Example 3, using the San Felipe strain of the southern cattle tick.
In data set [6] the test system is Munoz strain of the southern cattle tick, larvae. The data set is described as follows: FAO larval packet test, Munoz strain (Example 7).
For another data set, the system named is brown dog tick larvae. The data set is described as follows: FAO larval packet test, brown dog tick (Example 8). The conditions noted are these: for effect on larvae: coumaphos alone.
Data set [7] has as its system Pesqueria strain of the southern cattle tick, larvae. Kind of data set: FAO larval packet test, Pesqueria strain (Example 6). The conditions noted are these: for mortality: 0.1% coumaphos alone; for resistance of the strain: Pesqueria strain.

The term mortality denotes the share of the test organisms that died.

As to `Cc1ccc(/N=C/N(C)/C=N/c2ccc(C)cc2C)c(C)c1` [amitraz], the “resistance of the strain” value in data set [1] was 70 fold.

For the compound `CCNc1nc(Cl)nc(NC(C)C)n1` [atrazine], the “effect on toxicity of chlorpyrifos” value is “neither atrazine nor propazine had any effect” in data set [2], “did synergize” in data set [3] and “significantly enhanced” in data set [6] (0.01% chlorpyrifos). Further, the “effect on toxicity of coumaphos” value in data set [2] was “reduced the toxicity”. Further, the “effect on diazinon activity (fly mortality)” value in data set [2] (combined with diazinon 2.8 μg/cm^2, even at low ratio 0.25/1) was “significant synergistic effect”. For the same compound, the “effect on toxicity of pirimiphos-methyl” value in data set [2] is recorded as “synergized”. For the same compound, the “effect on coumaphos toxicity” value in data set [3] is on record as “substantially as described in Example 1”; in data set [4] (1% atrazine with 0.3, 0.6 or 1.2% w/v coumaphos, first trial, 24 h), “dramatically increased”; in data set [7] (0.1% coumaphos, atrazine/coumaphos ratio 2/1 and above, both trials) it was “significantly enhanced”. Further, in data set [3], the “effect on diazinon toxicity” value is reported as “substantially as described in Example 1”. Moreover, the “effect on pirimiphos-methyl toxicity” value in data set [3] was “substantially as described in Example 1”. Besides, the synergism with diazinon result was “Synergism was also observed” in data set [4] (0.1 or 0.05% diazinon, weaker than with coumaphos); “synergistic effect of atrazine was observed even at low atrazine/diazinon ratios” in data set [6] (higher diazinon concentration 0.05% (data not shown)); “only provided a synergistic effect at high atrazine/diazinon ratios” in data set [6] (very low diazinon 0.005%, ratio 32/1); “Synergism was also observed” in data set [1] (diazinon 0.025%, similar ratios, to a lesser extent than coumaphos). Also, the mortality in data set [4] (atrazine with 0.3% coumaphos, atrazine/coumaphos ratio 2/1, 24 h) was 100%; in data set [5] (atrazine alone at 0.8%), 5.2%; in the data set with brown dog tick larvae (atrazine alone 0.8%) it was 25.7%; in the data set with brown dog tick larvae (atrazine alone 1.0%), 18.9%; in the data set with brown dog tick larvae (atrazine alone at or below 0.4%) it was “less than 4%”. The “effect on chlorpyrifos toxicity” value in data set [4] (high atrazine/chlorpyrifos ratios (8/1 and above)) was “synergized”. Also, in data set [4] (varying atrazine concentrations, even at atrazine/coumaphos ratio 0.25/1, second trial), the “effect on toxicity of 0.3% coumaphos” value is given as “strongly synergized”. The “toxicity of atrazine alone” value in data set [5] (all concentrations except 0.8%) is “virtually non-toxic”. In addition, the synergism with coumaphos result is “significant synergism” in data set [5] (combined with 0.1% coumaphos, even at lowest atrazine/coumaphos ratio 0.125/1); “varying levels of synergism” in data set [6] (0.01% coumaphos); “Significant synergism” in data set [1] (0.05% coumaphos, atrazine/coumaphos ratios of 2/1 and above). In addition, the “effect on toxicity of diazinon” value in data set [7] (0.25% diazinon) is reported as “significantly enhanced”.

Turning to `CCOP(=S)(OCC)Oc1ccc2c(C)c(Cl)c(=O)oc2c1` [coumaphos], the “effect on larvae (mortality)” value in data set [4] (0.3% coumaphos alone, 24 h) is reported as “virtually no effect”. Moreover, the “resistance of the strain to the acaricide” value in data set [4] (compared with all strains tested) is on record as “highest resistance”. Besides, the mortality in data set [6] (coumaphos alone 0.01%, similar to the control) was 36%; in the data set on brown dog tick larvae (0.035% coumaphos used with the synergist atrazine (1%)), “greater than 60%”; in data set [7] (first trial) it was 42.6%; in data set [7] (repeated trial), 10.1%; in data set [1] (coumaphos alone at 0.05%), 28.9%. In addition, the effect on larvae result is “mortality increased” with brown dog tick larvae (higher concentrations) and “no effect” with brown dog tick larvae (less than or equal to 0.035%). Besides, the results for the “resistance of the strain” value in data set [7] and in data set [1] were “low resistance” and 5.5 fold, respectively.

On to `CCOP(=S)(OCC)Oc1cc(C)nc(C(C)C)n1` [diazinon], for which the results for the “resistance of the strain” value in data set [7] and in data set [1] were “very high level of resistance” and 2.6 fold, respectively.

Consider `CC1(C)C(C=C(Cl)Cl)C1C(=O)OCc1cccc(Oc2ccccc2)c1` (stereo not shown) [permethrin], for which, in data set [1], the “resistance of the strain” value was found to be 200 fold.

As for `CC(C)Nc1nc(Cl)nc(NC(C)C)n1` [propazine], in data set [2], the “effect on toxicity of chlorpyrifos” value is recorded as “neither atrazine nor propazine had any effect”, the “effect on toxicity of coumaphos” value is reported as “reduced the toxicity” and the “effect on toxicity of pirimiphos-methyl” value was “synergized”. Also, in data set [3], the “effect on coumaphos toxicity” value is given as “substantially as described in Example 1”, the “effect on diazinon toxicity” value was “substantially as described in Example 1”, the “effect on pirimiphos-methyl toxicity” value was “substantially as described in Example 1” and the “effect on toxicity of chlorpyrifos” value was “did synergize”.
